# Laboratory results taken from patent US9040533B2, “Oxime-substituted-quinoxaline-type piperidine compounds as ORL-1 modulators” (priority 2012, dated 2015).
# Experiments:
# [1] = target: CYP2D6 (Homo sapiens, UniProt P10635); assay: biochemical
# [2] = target: CYP2C19 (Homo sapiens, UniProt P33261); assay: biochemical
# [3] = target: T1, CYP1A2 (Homo sapiens, UniProt P05177); assay: biochemical
# T1 sequence (P05177 1-516): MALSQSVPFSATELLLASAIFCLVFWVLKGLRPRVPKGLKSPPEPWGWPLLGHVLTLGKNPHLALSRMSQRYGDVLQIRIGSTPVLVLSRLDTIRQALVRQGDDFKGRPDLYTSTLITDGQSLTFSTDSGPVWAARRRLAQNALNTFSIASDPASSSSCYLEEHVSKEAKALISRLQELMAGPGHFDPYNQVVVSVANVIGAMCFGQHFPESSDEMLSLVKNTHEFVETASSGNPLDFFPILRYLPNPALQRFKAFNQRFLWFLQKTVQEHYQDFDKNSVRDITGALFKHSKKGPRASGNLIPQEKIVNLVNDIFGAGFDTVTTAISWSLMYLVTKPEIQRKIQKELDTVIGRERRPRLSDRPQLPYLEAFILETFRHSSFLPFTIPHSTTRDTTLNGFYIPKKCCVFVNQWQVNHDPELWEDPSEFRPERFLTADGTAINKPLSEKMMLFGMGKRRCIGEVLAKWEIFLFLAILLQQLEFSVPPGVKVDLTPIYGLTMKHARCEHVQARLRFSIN
# [4] = target: human opioid receptor-like (ORL-1) (Homo sapiens, UniProt P41146); assay: ORL-1 receptor [35S]GTPγS functional binding assay; type: biochemical
# Chain of human opioid receptor-like (ORL-1) (P41146 whole entry): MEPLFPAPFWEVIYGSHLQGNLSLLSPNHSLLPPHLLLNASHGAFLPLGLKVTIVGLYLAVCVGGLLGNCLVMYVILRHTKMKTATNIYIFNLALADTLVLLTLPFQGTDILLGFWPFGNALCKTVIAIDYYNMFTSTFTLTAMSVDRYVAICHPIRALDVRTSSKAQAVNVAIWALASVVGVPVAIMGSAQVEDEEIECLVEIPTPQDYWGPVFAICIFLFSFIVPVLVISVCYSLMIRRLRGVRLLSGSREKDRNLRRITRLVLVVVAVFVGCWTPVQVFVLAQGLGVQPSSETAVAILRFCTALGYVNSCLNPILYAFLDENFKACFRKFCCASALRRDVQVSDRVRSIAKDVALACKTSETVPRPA
# [5] = target: CYP3A4 (Homo sapiens, UniProt P08684); assay: biochemical
# Chain of CYP3A4 (P08684 whole entry): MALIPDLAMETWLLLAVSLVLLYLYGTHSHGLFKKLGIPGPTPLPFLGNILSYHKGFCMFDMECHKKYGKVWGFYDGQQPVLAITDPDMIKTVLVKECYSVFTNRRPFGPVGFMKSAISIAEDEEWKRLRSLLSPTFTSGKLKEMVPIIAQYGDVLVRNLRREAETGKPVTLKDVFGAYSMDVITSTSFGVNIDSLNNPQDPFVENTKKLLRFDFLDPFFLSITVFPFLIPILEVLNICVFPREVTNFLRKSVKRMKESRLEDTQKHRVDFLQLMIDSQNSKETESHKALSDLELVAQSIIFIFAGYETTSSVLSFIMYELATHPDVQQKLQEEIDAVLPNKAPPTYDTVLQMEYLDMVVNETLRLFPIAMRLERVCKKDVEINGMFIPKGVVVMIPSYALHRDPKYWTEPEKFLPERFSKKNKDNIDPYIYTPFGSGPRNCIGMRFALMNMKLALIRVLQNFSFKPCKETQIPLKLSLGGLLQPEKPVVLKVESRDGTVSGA
# [6] = target: CYP2C9 (Homo sapiens, UniProt P11712); assay: biochemical
# Chain of CYP2C9 (P11712 whole entry): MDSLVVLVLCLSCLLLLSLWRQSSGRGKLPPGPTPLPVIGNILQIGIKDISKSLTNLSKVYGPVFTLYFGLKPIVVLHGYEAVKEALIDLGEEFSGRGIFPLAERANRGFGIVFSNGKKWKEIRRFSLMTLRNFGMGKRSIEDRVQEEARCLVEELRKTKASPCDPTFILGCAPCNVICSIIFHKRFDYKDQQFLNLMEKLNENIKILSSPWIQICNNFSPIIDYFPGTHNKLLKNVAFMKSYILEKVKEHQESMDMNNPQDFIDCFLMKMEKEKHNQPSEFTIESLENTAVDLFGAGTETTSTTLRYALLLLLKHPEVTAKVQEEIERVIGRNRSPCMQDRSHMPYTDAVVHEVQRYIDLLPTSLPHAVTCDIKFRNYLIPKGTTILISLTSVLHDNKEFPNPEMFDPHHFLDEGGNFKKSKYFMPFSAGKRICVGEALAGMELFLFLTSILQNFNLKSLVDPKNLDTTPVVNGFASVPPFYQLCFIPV
# [7] = target: human kappa opioid receptor (Homo sapiens, UniProt P41145); assay: In vitro kappa-opioid receptor binding assay ([3H]-U69,593 displacement)
# Chain of human kappa opioid receptor (P41145 whole entry): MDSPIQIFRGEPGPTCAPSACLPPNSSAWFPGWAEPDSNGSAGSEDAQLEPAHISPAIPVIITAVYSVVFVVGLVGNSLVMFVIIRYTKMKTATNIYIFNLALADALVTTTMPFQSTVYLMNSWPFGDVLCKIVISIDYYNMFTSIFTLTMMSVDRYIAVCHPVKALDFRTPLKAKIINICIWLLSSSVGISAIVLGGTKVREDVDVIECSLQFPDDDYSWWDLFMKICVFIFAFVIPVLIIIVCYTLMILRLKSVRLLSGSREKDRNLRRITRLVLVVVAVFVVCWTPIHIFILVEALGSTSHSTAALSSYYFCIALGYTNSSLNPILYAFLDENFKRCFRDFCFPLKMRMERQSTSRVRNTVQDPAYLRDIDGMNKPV
# [8] = target: human μ-opioid receptors (Homo sapiens, UniProt P35372); assay: In vitro mu-opioid receptor binding assay ([3H]-diprenorphine displacement); conditions: read-out: Mu opioid receptor Ki [Average ± Std Deviation]
# Chain of human μ-opioid receptors (P35372 whole entry): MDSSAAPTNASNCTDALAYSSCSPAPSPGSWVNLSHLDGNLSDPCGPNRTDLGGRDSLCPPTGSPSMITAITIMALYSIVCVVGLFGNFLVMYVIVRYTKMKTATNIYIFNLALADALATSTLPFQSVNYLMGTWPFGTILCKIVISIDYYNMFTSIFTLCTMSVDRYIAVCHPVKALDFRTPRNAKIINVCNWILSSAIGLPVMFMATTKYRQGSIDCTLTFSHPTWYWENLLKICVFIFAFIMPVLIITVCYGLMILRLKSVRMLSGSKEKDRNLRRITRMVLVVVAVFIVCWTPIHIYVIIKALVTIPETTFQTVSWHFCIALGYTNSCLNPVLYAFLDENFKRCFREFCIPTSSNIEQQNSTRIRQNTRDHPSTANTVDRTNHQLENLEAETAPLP
# [9] = target: delta opioid receptor (Homo sapiens, UniProt P41143); assay: In vitro delta-opioid receptor binding assay ([3H]-Naltrindole displacement)
# Chain of delta opioid receptor (P41143 whole entry): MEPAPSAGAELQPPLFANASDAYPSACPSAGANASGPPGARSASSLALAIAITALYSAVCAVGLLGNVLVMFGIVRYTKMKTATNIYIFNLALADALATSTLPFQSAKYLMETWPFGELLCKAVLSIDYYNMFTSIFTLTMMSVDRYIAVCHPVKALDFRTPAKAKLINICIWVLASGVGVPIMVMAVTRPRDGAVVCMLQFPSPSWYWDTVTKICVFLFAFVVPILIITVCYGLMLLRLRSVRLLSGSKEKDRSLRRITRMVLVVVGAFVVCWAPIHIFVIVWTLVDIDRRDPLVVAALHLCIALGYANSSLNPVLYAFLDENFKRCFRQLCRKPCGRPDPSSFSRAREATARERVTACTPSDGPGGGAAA
# Chain of CYP2D6 (P10635 whole entry): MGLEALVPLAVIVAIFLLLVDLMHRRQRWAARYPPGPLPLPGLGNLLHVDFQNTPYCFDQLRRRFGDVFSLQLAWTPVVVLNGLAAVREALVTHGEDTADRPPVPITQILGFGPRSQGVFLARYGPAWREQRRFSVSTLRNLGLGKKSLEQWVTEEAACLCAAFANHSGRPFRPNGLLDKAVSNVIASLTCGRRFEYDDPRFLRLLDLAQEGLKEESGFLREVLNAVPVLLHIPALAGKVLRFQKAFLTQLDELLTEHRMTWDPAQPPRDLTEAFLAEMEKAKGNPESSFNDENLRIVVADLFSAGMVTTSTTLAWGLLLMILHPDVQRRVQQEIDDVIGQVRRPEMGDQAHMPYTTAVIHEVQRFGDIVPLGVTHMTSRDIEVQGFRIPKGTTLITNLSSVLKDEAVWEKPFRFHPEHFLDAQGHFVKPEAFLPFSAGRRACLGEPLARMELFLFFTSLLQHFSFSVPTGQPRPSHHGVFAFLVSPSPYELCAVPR
# Chain of CYP2C19 (P33261 whole entry): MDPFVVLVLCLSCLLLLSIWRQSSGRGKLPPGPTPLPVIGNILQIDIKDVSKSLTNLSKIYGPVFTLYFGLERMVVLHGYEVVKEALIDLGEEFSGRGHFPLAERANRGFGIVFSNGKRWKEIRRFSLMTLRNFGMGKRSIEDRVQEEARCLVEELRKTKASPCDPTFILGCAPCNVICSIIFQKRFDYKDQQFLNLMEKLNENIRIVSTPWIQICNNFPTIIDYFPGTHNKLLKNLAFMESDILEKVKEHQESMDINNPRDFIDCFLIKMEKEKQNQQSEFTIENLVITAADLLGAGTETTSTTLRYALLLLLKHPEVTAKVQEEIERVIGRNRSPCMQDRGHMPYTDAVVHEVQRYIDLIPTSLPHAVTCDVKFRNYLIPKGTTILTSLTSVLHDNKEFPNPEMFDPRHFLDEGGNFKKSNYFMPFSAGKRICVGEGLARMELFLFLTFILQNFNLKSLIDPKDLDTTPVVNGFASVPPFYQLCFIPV
Compound,IC50 [1] [µM],IC50 [2] [µM],IC50 [3] [µM],EC50 [4] [µM],IC50 [5] [µM],IC50 [6] [µM],Ki [7] [µM],Ki [8] [µM],Ki [9] [µM]
"CO/N=C(\CCC(=O)O)c1nc2ccccc2n([C@H]2C[C@H]3CCC[C@@H](C2)N3C2CCCCCCCC2)c1=O [Compound 10, 4-[4-((1R,3R,7S)-9-cyclononyl-9-aza-bicyclo[3.3.1]non-3-yl)-3-oxo-3,4-dihydro-quinoxalin-2-yl]-4-methoxyimino-butyric acid]",> 20,> 20,> 20,0.104 ± 0.012,> 20,> 20,,,
"CON=C(CCC(=O)O)c1nc2ccccc2n([C@H]2C[C@H]3CC[C@@H](C2)N3C2CC3CCCC(C3)C2)c1=O (stereo partly drawn) [Compound 14, 4-(4-((1R,3R)-8-(bicyclo[3.3.1]nonan-3-yl)-8-azabicyclo[3.2.1]octan-3-yl)-3-oxo-3,4-dihydroquinoxalin-2-yl)-4-(methoxyimino)butanoic acid]",> 20,> 20,> 20,0.15 ± 0.014,> 20,> 20,2.76 ± 0.245,2.3 ± 0.153,> 20
C/C(=N\OCC(=O)O)c1nc2ccccc2n([C@H]2C[C@H]3CCC[C@@H](C2)N3C2CCCCCCCCC2)c1=O [Compound 21],> 20,> 20,> 20,0.239 ± 0.0254,> 20,> 20,,,
NC(=O)/C(=N\OCC(=O)O)c1nc2ccccc2n([C@H]2C[C@H]3CCC[C@@H](C2)N3C2CC3CCCC(C3)C2)c1=O (stereo partly shown) [Compound 40],> 20,> 20,> 20,0.113 ± 0.031,> 20,> 20,1.7 ± 0.278,2.71 ± 0.285,> 20
CON=C(CCC(=O)O)c1nc2ccccc2n([C@H]2C[C@H]3COC[C@@H](C2)N3C2CC3CCCCC(C3)C2)c1=O (stereo partly shown) [Compound 48],> 20,> 20,> 20,0.149 ± 0.029,> 20,> 20,> 20,15.6,> 20
NC(=O)CO/N=C(\C(N)=O)c1nc2ccccc2n([C@H]2C[C@H]3CCC[C@@H](C2)N3C2CC3CCCCC(C3)C2)c1=O (stereo partly shown) [Compound 66],> 20,> 20,> 20,,> 20,> 20,,,
CC(C)ON=C(CCC(=O)O)c1nc2ccccc2n([C@H]2C[C@H]3CC[C@@H](C2)N3C2CC3CCCCC(C3)C2)c1=O (stereo partly shown) [Compound 67],> 20,> 20,> 20,,> 20,> 20,,,
